Data: US20260085315A1, “POLYNUCLEOTIDE COMPOSITIONS AND METHODS FOR TREATMENT OF CANCER” (APTAH BIO, INC., priority 2023, published 2026)
Values joined by “and” are separate entries in the source; they are usually repeats but may differ in a detail not shown here. Identical values can stand only once. “Also recorded” adds a separate entry of the source. d = 2'-deoxy (DNA); m = 2'-O-methyl

How the values were obtained:
786-O line = experiment: MTT cytotoxicity assay on human cancer cell panel (Example 2); assay type: cell-based; details: 0.03-30 μM, 0.1% FBS
Protocol: Cell lines were maintained in growth medium with 10% of Fetal Bovine Serum (FBS) until the time of the experiments. Cells were sub-cultured by trypsinization and splitting the cell suspension into fresh flasks and supplementing with fresh culture medium. To perform the assay, the cells were trypsinized, neutralized with complete medium (10% FBS), centrifuged, counted with assistance of a hemocytometer, and plated with the respective media with 10% FBS. Cell lines were plated at a density of 1×10^4 cells per well, other than the SH-SY5Y cell line which was plated at a density of 2.5×10^4. The preparation of the different experimental groups was done with 0.1% FBS (U87MG, MCF-7, SH-SY5Y and 786-O) and 1% FBS (PC-3). The untreated cells were used as negative control (medium only). After 24, 48, 72 and 96 hours of incubation, the effect of ASMO1 and controls on cytotoxicity of cells was determined by MTT assay.
Briefly, plates were taken out and 20 μl of 5 mg/ml of MTT 3-(4,5-dimethythiazol-2-yl)-2,5-diphenyl tetrazolium bromide solution was added to all the wells. […] The absorbance of each well was then read at 540 nm using Synergy HT microplate reader.
Cells were plated and treated with 7 different concentrations (0.03, 0.1, 0.3, 1, 3, 10 and 30 μM) of APT20TTMG with medium (0.1% FBS). MTT assay was performed in 3 distinct times and graphs are represented as absorbance (540 nm). […]

MCF-7 cell line = experiment: Annexin V/propidium iodide apoptosis assay; assay type: cell-based, Human; details: 0.25, 0.5, 1 μM; 24 hours; vs non-treated cells
Protocol: The apoptosis-inducing potential of ASMO APT20TTMG was evaluated using the method of double labeling of cells with Annexin V and propidium iodide. Annexin V is a peptide that has a high affinity for phosphatidyl serine, a phospholipid distributed asymmetrically in the inner leaflet of the lipid bilayer of membrane plasma under physiological conditions. During the process of cell death by apoptosis, phospholipids asymmetric distribution is lost and phosphatidyl serine is translocated to the outer leaflet of the plasma membrane through a process of externalization. The measurement of the exposure of phosphatidylserine could be detected by Annexin V conjugated to fluorochromes. On the other hand, propidium iodide is a DNA intercalator that only can penetrate the interior of the cell in cases where the selective permeability of the plasma membrane is compromised, which clearly occurs during several processes of cell death.
Pro-apoptotic potential of APT20TTMG was evaluated in the MCF-7 cell line, using the Apoptosis Detection with Annexin V/Propidium Iodide kit (eBioScience). First, cells were cultured in 24-well plates at a density of 1×10^5 cells/well for 24 hours for adhesion. […] Finally, the samples were labeled with Propidium Iodide and analyzed in a flow cytometer (BD FACSCanto II, BD Biosciences) through the acquisition of 10.000 gated events/sample.

[1] = tested on: Human Glioblastoma Cancer (U-87MG) xenograft; experiment: Histopathology of tumor samples with scoring; assay type: in vivo, athymic nude mice; parameters: key to Score: Grade: 1: I; 2: II; 3: III; 4: IV; key to Score: Connective tissue stroma: 1: Minimal Fibrosis; 2: Mild Fibrosis; 3: Moderate Fibrosis; 4: Prominent; key to Score: N:C ratio: 3: High; 2: Low to High; 1: Low; key to Score: Apoptosis / Score: Lipid content: 4: Minimal; 3: Mild; 2: Moderate; 1: Prominent
Description: The fixed tissues were processed for routine paraffin embedding followed by sectioning (3-6 micron). The sections were stained with hematoxylin and eosin. The prepared slides were examined under microscope by the study pathologist to record histopathological findings in tumor samples, related to capsule formation, cell type, connective tissue stroma, apoptosis, necrosis, lipid content, nucleus-to-cytoplasmic (N:C) ratio, nuclei mitotic figures, tumor grade, and level of differentiation. Each histopathological finding and tumor volume were assigned a score ranging from 1 to 4 (Table 7). The sum of these scores for each sample was used to infer the tumor aggressiveness.

U87-MG cell line = experiment: Apoptosis assay; assay type: cell-based, Human
GFAP = experiment: ELISA of tumor tissue homogenate; assay type: in vivo, Human; details: in relation to the non-treated control
Protocol: (§1) For the assessment of biomarkers such as cAMP, AKT, GFAP, and TAU by ELISA, the U-87MG tumor tissues dissected out from the animals were homogenized according to kit instructions. The homogenates were centrifugated, and the supernatant was collected and immunoassayed with the Human AKT Protein ELISA Kit (MyByoSouce), cyclic AMP Complete Enzyme-linked Immunosorbent Assay (ELISA) kit (MyByoSouce), Human Glial Fibrillary Acidic Protein (GFAP) ELISA Kit (Cusabio), and Human TAU Protein (TAU) ELISA Kit (MyByoSouce) for the quantitative determination of cAMP, AKT, GFAP, and TAU proteins, respectively.
(§2) As shown in FIG. 37A-D, the graphs present the individual values of protein quantification of tumors from 6 animals. (A) cAMP, (B) […], (C) GFAP, and (D) TAU.

AKT = experiment: ELISA of tumor tissue homogenate; assay type: in vivo, Human; details: in relation to the negative control
Protocol: as §1, §2

TAU = experiment: ELISA of tumor tissue homogenate; assay type: in vivo, Human; details: after treatment
Protocol: as §1, §2

cAMP = experiment: ELISA of tumor tissue homogenate; assay type: in vivo, U-87MG xenograft in animals; details: vs negative control; lower total expression
Protocol: as §1, §2

[2] = individual animals, G3 APT20TTMG, G2 TMZ
[3] = two highest concentrations (0.5 and 1 μM)

APT20TTMG: engineered polynucleotide ASMO1, 24 nt, SEQ ID NO: 3 gtccactaacctttcaggccagcg; targeting moieties 5′-GTCCA-3′ and 5′-CG-3′, U1 snRNP recruiting moiety (GTCCACTAACCTTTCAGGCCAGCG; sugars from the 5' end m5 d14 m5, all phosphorothioate, methylation of C and T or U not given here)
cell viability (MTT) (786-O line; 48 and 72 hours): no difference when compared to the control (vehicle group), only in the highest concentration (30 μM)
cell viability (MTT) (786-O line; 24 hours): can alter cell viability
proportion of viable cells, recent/late apoptosis or necrosis (MCF-7 cell line): no change in any of the evaluated parameters
total score of histopathological findings and tumor volume ([1]; G3 20 mg/kg i.v. vs G1 vehicle): statistically lower scores than G1 group
histopathological findings compared to G1 (vehicle control) ([1]; G3 APT20TTMG 20 mg/kg i.v., G2 TMZ 5 mg/kg p.o.): less anaplastic features (lower grade) and cellular atypia, with fewer mitotic figures
Histopathological findings: Cell Type ([1]; individual animals): Cell Type - Irregular/spindle type cells; also recorded: Cell Type - Polymorphic (i.e., Moderately differentiated
Histopathological findings (whole sample) ([1]; individual animals, G3): Only diffused necrotic area was observed.
Score: Capsule ([1]; individual animals, G3): 1
Histopathological findings: Capsule ([1]; individual animals, G3 APT20TTMG 20 mg/kg i.v. q3dx7, G2 TMZ 5 mg/kg p.o. qdx21): Capsule - Present; also recorded: Capsule - Absent
Histopathological findings: Apoptosis [1, 2]: Apoptosis - Mild; also recorded: Apoptosis - Moderate
Histopathological findings: Connective tissue stroma [1, 2]: Connective tissue stroma - Moderate Fibrosis; also recorded: Connective tissue stroma - Mild Fibrosis
Histopathological findings: Grade [1, 2]: Grade- 2; also recorded: Grade- 1; also recorded: Grade- 3
Histopathological findings: Lipid content [1, 2]: Lipid content - Moderate; also recorded: Lipid content - Minimal; also recorded: Lipid content - Mild
Histopathological findings: Mitotic figures [1, 2]: Mitotic figures - Active (Few in number); also recorded: Mitotic figures - Active (Moderate in number); also recorded: Mitotic figures - Active (Large in number)
Histopathological findings: N:C ratio [1, 2]: N:C ratio - Low to High (Intermediate)
Histopathological findings: Necrosis [1, 2]: Necrosis - Prominent; also recorded: Necrosis - Moderate; also recorded: Necrosis - Mild
Histopathological findings: Nuclei [1, 2]: Nuclei - Hyperchromatic
Histopathological findings: level of differentiation [1, 2]: Moderately differentiated; also recorded: Well differentiated
Score: Apoptosis [1, 2]: 3 (4×) and 2 (2×)
Score: Connective tissue stroma [1, 2]: 3 (4×) and 2 (2×)
Score: Grade [1, 2]: 2 (4×) and 1 and 3
Score: Lipid content [1, 2]: 3 (3×) and 1 and 2 (2×)
Score: N:C ratio [1, 2]: 1 (3×) and 2 (2×) and 3
Score: Volume Tumor [1, 2]: 1 (<500) (2×) and 2 (500-1000) (3×) and 3 (1000-1500)
late apoptosis (U87-MG cell line; 0.25 μM): trend toward this state
late apoptosis (U87-MG cell line; [3]): significantly marked for late apoptosis
viable cells (apoptosis assay) (U87-MG cell line; [3]): reduce cell viability
GFAP in tumor tissue (ELISA) (GFAP): reduction of this biomarker
AKT expression in tumor tissue (ELISA) (AKT): reduces the expression of ART protein
TAU expression in tumor tissue (ELISA) (TAU): significant reduction in TAU expression
cAMP in tumor tissue (ELISA) (cAMP): no statistical difference was observed
